Here are results for 14 molecules from US20250034127A1, “AUTOPHAGY INDUCING COMPOUNDS AND USES THEREOF, IN PARTICULAR FOR DISEASES OF THE CNS” (Samsara Therapeutics Inc., priority 2021, published 2025).

The test has as its system Human osteosarcoma U2OS cells. The experiment in a line: Assay to measure lysosome and autolysosome (acidic vesicle) formation in U2OS cells. The conditions noted are these: for activation at 0.8 µM: Homo sapiens, concentration of 0.8 μM, read-out: Activity (percentage increase in acidic vesicle formation over the DMSO-treated control); for acidic vesicle formation relative to a DMSO-treated control: concentration of 10 μM, 24 hours. In kind it is cell-based. The method, then:
Lysosomes play a fundamental role in the autophagic pathway by fusing with autophagosomes and creating ‘autolysosomes’ in order to digest their contents. Stimulation of lysosome and autolysosome formation by a compound is indicative of a stimulation of autophagy. The ability of compounds to stimulate lysosome and autolysosome formation, and thus autophagy, in live cells was assessed via fluorescent microscopy using various fluorescent stains for labelling and tracking acidic organelles (including lysosomes and autolysosomes) such as: LysoView™ 650 (70059 and 70059-T, Biotium), Lyso View™633 (70058 and 70058-T, Biotium) and LysoTracker™ Deep Red (L12492, ThermoFisher Scientific). The cellular phenotype was quantitatively assessed for the induction of acidic vesicle formation and compared to a non-treated control, thus providing a measure of the ability of the compound under investigation to stimulate autophagy.
Representative procedure using LysoView™ 633 dye or LysoTracker™ Deep Red dye: Human osteosarcoma U2OS cells (40,000 cells/well) were seeded in a 24 well glass bottom plate (Sensoplate, Greiner Bio-One) and were incubated overnight in a humidified atmosphere at 37° C. and 5% CO2. Cells were grown in DMEM (Gibco) supplemented with 10% Fetal Bovine Serum (FBS) and 100 units/ml penicillin and 100 μg/ml streptomycin (Invitrogen). After the attachment period, cells were treated with different compounds of interest (at various concentrations in DMSO) or DMSO (non-treated control) in cell culture medium and were incubated for 24 hours. Compound-containing medium was removed and cells were incubated with pre-warmed cell culture medium containing 1× Lyso View™ 633 (70058 and 70058-T, Biotium) or 50 nM LysoTracker™ Deep Red (L12492, ThermoFisher Scientific) for 45 minutes at 37° C. Finally, cell nuclei were stained for 10 minutes using Hoechst 33342 (1 μg/mL) and then the medium was replaced with fresh medium. The 24 well plate was then fitted into a heated stage on the microscope and cells maintained at 37° C. Images were captured using appropriate filter set for Cy5 and DAPI detection with the EVOS M7000 Microscope (ThermoFisher Scientific). The cellular phenotype was visually assessed for the induction of acidic vesicle formation relative to the non-treated control; multiple images were acquired and analysed using ImageJ or Cell Profiler.

In the case of `CCN1CCC(NC(=O)c2ccc(-c3cnn(-c4ccccc4)c3)[nH]2)CC1` [Compound 214, N-(1-ethylpiperidin-4-yl)-5-(1-phenyl-1H-pyrazol-4-yl)-1H-pyrrole-2-carboxamide], the activation at 0.8 µM fell in the range of 10 to 30%.
Same read-out and setting: to `C[C@H]1CN(C(=O)c2csc(-c3cnn(-c4cccnn4)c3)n2)CCN1` [Compound 229, 3-(4-{4-[(3S)-3-methylpiperazine-1-carbonyl]-1,3-thiazol-2-yl}-1H-pyrazol-1-yl)pyridazine] belongs 30 to 50%.
On to `C[C@H]1CC(N(C)C(=O)c2csc(-c3cnn(-c4ccccc4)c3)n2)CCN1` (stereo partly drawn) [Compound 241, N-methyl-N-[(2S)-2-methylpiperidin-4-yl]-2-(1-phenyl-1H-pyrazol-4-yl)-1,3-thiazole-4-carboxamide], for which the “acidic vesicle formation relative to a DMSO-treated control” value was “only a slight increase”.
`CCN1CCC(NC(=O)c2csc(-c3cnn(-c4cccnc4)c3)n2)CC1` [Compound 225, N-(1-ethylpiperidin-4-yl)-2-[1-(pyridin-3-yl)-1H-pyrazol-4-yl]-1,3-thiazole-4-carboxamide]: the activation at 0.8 µM was in the range of 10 to 30%.
The same measure, in the same setting: to `CCN1CCC(N(C)C(=O)c2csc(-c3cnn(-c4ccccn4)c3)n2)CC1` [Compound 221, N-(1-ethylpiperidin-4-yl)-N-methyl-2-[1-(pyridin-2-yl)-1H-pyrazol-4-yl]-1,3-thiazole-4-carboxamide] belongs 10 to 30%.
With `C[C@H]1CN(C(=O)c2csc(-c3cnn(-c4ccncc4)c3)n2)CCN1` [Compound 226, (3S)-3-methyl-1-{2-[1-(pyridin-4-yl)-1H-pyrazol-4-yl]-1,3-thiazole-4-carbonyl}piperazine], the “acidic vesicle formation relative to a DMSO-treated control” value was “only a slight increase”.
As to `CCN1CCC(NC(=O)c2csc(-c3cnn(-c4ccc(F)cc4)c3)n2)CC1` [Compound 213, N-(1-ethylpiperidin-4-yl)-2-[1-(4-fluorophenyl)-1H-pyrazol-4-yl]-1,3-thiazole-4-carboxamide], the activation at 0.8 µM was in the range of 10 to 30%.
For the molecule `CCN1CCC(N(C)C(=O)c2csc(-c3cnn(-c4ccncc4)c3)n2)CC1` [Compound 227, N-(1-ethylpiperidin-4-yl)-N-methyl-2-[1-(pyridin-4-yl)-1H-pyrazol-4-yl]-1,3-thiazole-4-carboxamide], the “acidic vesicle formation relative to a DMSO-treated control” value is recorded as “only a slight increase”.
Take `CN(CCN(C)C1CCCCC1)C(=O)c1csc(-c2cnn(-c3ccccc3)c2)n1` [Compound 190, N-{2-[cyclohexyl(methyl)amino]ethyl}-N-methyl-2-(1-phenyl-1H-pyrazol-4-yl)-1,3-thiazole-4-carboxamide]: the activation at 0.8 µM is 10 to 30%.
On the same count and under the same terms, to `CC1(C)CN(C(=O)c2csc(-c3cnn(-c4ccccc4)c3)n2)CCN1` [Compound 235, 3,3-dimethyl-1-[2-(1-phenyl-1H-pyrazol-4-yl)-1,3-thiazole-4-carbonyl]piperazine] belongs 30 to 50%.
For the molecule `C[C@H]1CN(C(=O)c2csc(-c3cnn(-c4cccnc4)c3)n2)CCN1` [Compound 223, (3S)-3-methyl-1-{2-[1-(pyridin-3-yl)-1H-pyrazol-4-yl]-1,3-thiazole-4-carbonyl}piperazine], the activation at 0.8 µM was 10 to 30% and the “acidic vesicle formation relative to a DMSO-treated control” value is “only a slight increase”.
Take `CCN1CCC(NC(=O)c2csc(-c3cnn(-c4ccncc4)c3)n2)CC1` [Compound 228, N-(1-ethylpiperidin-4-yl)-2-[1-(pyridin-4-yl)-1H-pyrazol-4-yl]-1,3-thiazole-4-carboxamide]: the activation at 0.8 µM was 10 to 30%.
Same read-out and setting: to `C[C@H]1CN(C(=O)c2cc(-c3cnn(-c4ccccc4)c3)c[nH]2)CCN1` [Compound 255, (3S)-3-methyl-1-[4-(1-phenyl-1H-pyrazol-4-yl)-1H-pyrrole-2-carbonyl]piperazine] belongs 50 to 100%; to `CCN1C[C@@H]2C[C@H]1CC2NC(=O)c1csc(-c2cnn(-c3ccccc3)c2)n1` (stereo partly drawn) [Compound 246, N-[(1S,4S)-2-ethyl-2-azabicyclo[2.2.1]heptan-5-yl]-2-(1-phenyl-1H-pyrazol-4-yl)-1,3-thiazole-4-carboxamide], 10 to 30%.
